# Measured values taken from ChEMBL document CHEMBL3421627, “Synthesis and biological evaluation of novel pyrazoline derivatives as potent anti-inflammatory agents” (Bioorg Med Chem Lett, 2015).
# The source made the active and inactive calls. The rule behind the calls is not given here.
# Tests used:
# [1] = target: T1, Nitric oxide synthase, inducible (Mus musculus, UniProt P29477); experiment: Inhibition of iNOS in LPS-stimulated mouse RAW264.7 cells using L-Arginine substrate incubated for 2 hrs by fluorescence spectrometry; assay type: cell-based
# T1 sequence (P29477 whole entry): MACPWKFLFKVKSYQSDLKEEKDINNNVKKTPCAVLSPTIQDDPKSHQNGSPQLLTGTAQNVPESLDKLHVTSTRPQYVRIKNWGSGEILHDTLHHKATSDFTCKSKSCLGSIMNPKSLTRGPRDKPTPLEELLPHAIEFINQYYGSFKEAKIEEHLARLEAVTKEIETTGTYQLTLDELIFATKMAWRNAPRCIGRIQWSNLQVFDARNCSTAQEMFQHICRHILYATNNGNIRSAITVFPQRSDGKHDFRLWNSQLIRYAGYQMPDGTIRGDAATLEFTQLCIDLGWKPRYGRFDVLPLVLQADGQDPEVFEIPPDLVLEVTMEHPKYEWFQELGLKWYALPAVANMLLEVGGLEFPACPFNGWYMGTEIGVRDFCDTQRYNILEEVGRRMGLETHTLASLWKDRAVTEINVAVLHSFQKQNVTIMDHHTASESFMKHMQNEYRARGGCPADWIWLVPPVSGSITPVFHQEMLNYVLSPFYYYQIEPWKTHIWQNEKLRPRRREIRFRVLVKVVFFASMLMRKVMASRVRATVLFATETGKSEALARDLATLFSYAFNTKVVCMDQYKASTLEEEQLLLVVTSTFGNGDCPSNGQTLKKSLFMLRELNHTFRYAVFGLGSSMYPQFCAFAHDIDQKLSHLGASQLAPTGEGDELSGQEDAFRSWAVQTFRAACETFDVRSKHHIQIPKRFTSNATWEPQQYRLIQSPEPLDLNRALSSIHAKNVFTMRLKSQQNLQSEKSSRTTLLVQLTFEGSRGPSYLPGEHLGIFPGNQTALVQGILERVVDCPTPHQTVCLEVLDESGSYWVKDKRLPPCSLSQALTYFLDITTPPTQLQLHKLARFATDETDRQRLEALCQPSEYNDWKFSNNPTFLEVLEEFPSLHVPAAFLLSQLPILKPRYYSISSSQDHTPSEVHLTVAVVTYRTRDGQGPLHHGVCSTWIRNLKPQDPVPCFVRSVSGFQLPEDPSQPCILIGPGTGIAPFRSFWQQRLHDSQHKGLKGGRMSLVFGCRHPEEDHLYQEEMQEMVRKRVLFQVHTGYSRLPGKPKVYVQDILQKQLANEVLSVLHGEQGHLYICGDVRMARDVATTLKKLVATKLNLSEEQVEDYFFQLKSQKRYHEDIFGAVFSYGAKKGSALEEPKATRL
# RAW264.7 [2] = experiment: Cytotoxicity against mouse RAW264.7 cells assessed as reduction in cell viability after 24 hrs in absence of LPS by MTT assay; assay type: cell-based; conditions: RAW264.7, 24 h
# RAW264.7 [3] = experiment: Cytotoxicity against mouse RAW264.7 cells assessed as reduction in cell viability after 24 hrs in presence of LPS by MTT assay; assay type: cell-based; conditions: RAW264.7, 24 h
# RAW264.7 [4] = experiment: Anti-inflammatory activity in mouse RAW264.7 cells assessed as inhibition of LPS-induced nitric oxide production at 10 uM pre-incubated for 2 hrs before LPS stimulation for 18 hrs by Griess reagent based colorimetric method; assay type: functional
# Mus musculus [5] = experiment: Anti-inflammatory activity in ICR mouse model of carrageenan-induced edema assessed as inhibition of paw thickness at 10 mg/kg, ip; assay type: functional; conditions: route intraperitoneal
# Mus musculus [6] = experiment: Anti-inflammatory activity in ICR mouse model of carrageenan-induced edema assessed as inhibition of paw thickness at 50 mg/kg, ip; assay type: functional; conditions: route intraperitoneal
# Mus musculus [7] = experiment: Anti-inflammatory activity in ICR mouse model of adjuvant-induced arthritis assessed as reduction in arthritis severity scores at 25 and 50 mg/kg, po dosed once daily from day 17 after vaccination; assay type: functional, organism-based; parameters: dose 50 mg/kg
# Mus musculus [8] = experiment: Anti-inflammatory activity in ICR mouse model of adjuvant-induced arthritis assessed as reduction in histopathological changes at 50 mg/kg, po dosed once daily from day 17 after vaccination by H and E staining method; assay type: functional, organism-based; parameters: dose 50 mg/kg
# Mus musculus [9] = experiment: Anti-inflammatory activity in ICR mouse model of carrageenan-induced edema assessed as inhibition of paw thickness at 25 mg/kg, ip; assay type: functional, organism-based; parameters: dose 25 mg/kg
Structure (SMILES),inhibition at 10 µM (RAW264.7 [4]) [%],other results
COc1ccc(C2=NN(C(=O)CCl)C(c3cc(OC)c(OC)c(OC)c3)C2)c2c1C=CC(C)(C)O2 (configuration not stated),96.7,IC50 [1]: 2.5 µM; IC50 (RAW264.7 [2]): 30.8 µM; IC50 (RAW264.7 [3]): 19.3 µM
COc1ccc(C2=NN(C(=O)c3ccc(Cl)cc3)C(c3cc(OC)c(OC)c(OC)c3)C2)c2c1C=CC(C)(C)O2 (configuration not stated),34.7,–
COc1ccc(C2=NN(C(=O)c3ccccc3C(F)(F)F)C(c3cc(OC)c(OC)c(OC)c3)C2)c2c1C=CC(C)(C)O2 (configuration not stated),18.9,–
COc1ccc(C2=NN(c3ccc(S(N)(=O)=O)cc3)C(c3cc(OC)c(OC)c(OC)c3)C2)c2c1C=CC(C)(C)O2 (configuration not stated),30.5,–
COc1ccc2c(c1)c(CC(=O)O)c(C)n2C(=O)c1ccc(Cl)cc1 [INDOMETHACIN],60.6,IC50 [1]: 4.5 µM; IC50 (RAW264.7 [2]): 10.7 µM; inhibition in vivo at 10 mg/kg (Mus musculus [5]): 32%; IC50 (RAW264.7 [3]): 9.2 µM
COc1ccc(C2=NN(C(C)=O)C(c3cc(OC)c(OC)c(OC)c3)C2)c2c1C=CC(C)(C)O2 (configuration not stated),89.8,IC50 [1]: 7.3 µM; IC50 (RAW264.7 [2]): > 100 µM; IC50 (RAW264.7 [3]): > 100 µM
COc1ccc(C2=NN(C(=O)c3ccc(C(F)(F)F)cc3)C(c3cc(OC)c(OC)c(OC)c3)C2)c2c1C=CC(C)(C)O2 (configuration not stated),23.1,–
CCC(=O)N1N=C(c2ccc(OC)c3c2OC(C)(C)C=C3)CC1c1cc(OC)c(OC)c(OC)c1 (configuration not stated),65.9,–
COc1ccc(C2=NN(C(=O)c3ccc(F)cc3)C(c3cc(OC)c(OC)c(OC)c3)C2)c2c1C=CC(C)(C)O2 (configuration not stated),17.5,–
COc1ccc(C2=NN(C(=O)c3cccc(F)c3)C(c3cc(OC)c(OC)c(OC)c3)C2)c2c1C=CC(C)(C)O2 (configuration not stated),35.1,–
COc1ccc(C2=NN(C(=O)CCCl)C(c3cc(OC)c(OC)c(OC)c3)C2)c2c1C=CC(C)(C)O2 (configuration not stated),62.1,–
COc1ccc(C2=NN(C(=O)C(C)C)C(c3cc(OC)c(OC)c(OC)c3)C2)c2c1C=CC(C)(C)O2 (configuration not stated),54.2,–
COc1ccc(C2=NN(S(=O)(=O)C3CC3)C(c3cc(OC)c(OC)c(OC)c3)C2)c2c1C=CC(C)(C)O2 (configuration not stated),31.9,–
COc1ccc(C2=NN(c3ccc(C(F)(F)F)cc3)C(c3cc(OC)c(OC)c(OC)c3)C2)c2c1C=CC(C)(C)O2 (configuration not stated),14.4,–
COc1ccc(C2=NN(S(=O)(=O)c3cc(C)cc(C)c3)C(c3cc(OC)c(OC)c(OC)c3)C2)c2c1C=CC(C)(C)O2 (configuration not stated),26.9,–
COc1ccc(C2=NN(S(=O)(=O)c3ccc([N+](=O)[O-])cc3)C(c3cc(OC)c(OC)c(OC)c3)C2)c2c1C=CC(C)(C)O2 (configuration not stated),41,–
COc1ccc(C2=NNC(c3cc(OC)c(OC)c(OC)c3)C2)c2c1C=CC(C)(C)O2 (configuration not stated),49.2,–
COc1ccc(C2=NN(c3ccc(C#N)cc3)C(c3cc(OC)c(OC)c(OC)c3)C2)c2c1C=CC(C)(C)O2 (configuration not stated),40.8,–
COc1ccc(C2=NN(C(=O)c3ccccc3F)C(c3cc(OC)c(OC)c(OC)c3)C2)c2c1C=CC(C)(C)O2 (configuration not stated),27.8,–
CCS(=O)(=O)N1N=C(c2ccc(OC)c3c2OC(C)(C)C=C3)CC1c1cc(OC)c(OC)c(OC)c1 (configuration not stated),42.5,–
COc1ccc(C(=O)N2N=C(c3ccc(OC)c4c3OC(C)(C)C=C4)CC2c2cc(OC)c(OC)c(OC)c2)cc1 (configuration not stated),78,IC50 [1]: 24.8 µM; inhibition in vivo at 50 mg/kg (Mus musculus [6]): 54.2%; IC50 (RAW264.7 [2]): > 100 µM; IC50 (RAW264.7 [3]): > 100 µM; inhibition (Mus musculus [7]): Dose-dependent effect; inhibition (Mus musculus [8]): Active; inhibition (Mus musculus [9]): Active
COc1ccc(C2=NN(c3ccc([N+](=O)[O-])cc3)C(c3cc(OC)c(OC)c(OC)c3)C2)c2c1C=CC(C)(C)O2 (configuration not stated),15.7,–
COc1ccc(C2=NN(c3ccc(F)cc3)C(c3cc(OC)c(OC)c(OC)c3)C2)c2c1C=CC(C)(C)O2 (configuration not stated),30.8,–
CCCS(=O)(=O)N1N=C(c2ccc(OC)c3c2OC(C)(C)C=C3)CC1c1cc(OC)c(OC)c(OC)c1 (configuration not stated),40.8,–
COc1ccc(C2=NN(C(=O)c3cccc(C(F)(F)F)c3)C(c3cc(OC)c(OC)c(OC)c3)C2)c2c1C=CC(C)(C)O2 (configuration not stated),22.4,–
COc1ccc(C2=NN(S(=O)(=O)c3ccc(F)cc3)C(c3cc(OC)c(OC)c(OC)c3)C2)c2c1C=CC(C)(C)O2 (configuration not stated),23.2,–
COc1ccc(C2=NN(C(=O)c3cc(OC)c(OC)c(OC)c3)C(c3cc(OC)c(OC)c(OC)c3)C2)c2c1C=CC(C)(C)O2 (configuration not stated),57.2,–
COc1ccc(C2=NN(C(=O)c3cccc(Cl)c3)C(c3cc(OC)c(OC)c(OC)c3)C2)c2c1C=CC(C)(C)O2 (configuration not stated),29.1,–
COc1ccc(C2=NN(c3ccc(C(=O)O)cc3)C(c3cc(OC)c(OC)c(OC)c3)C2)c2c1C=CC(C)(C)O2 (configuration not stated),19.4,–
COc1ccc(C2=NN(S(=O)(=O)c3ccc(C)cc3)C(c3cc(OC)c(OC)c(OC)c3)C2)c2c1C=CC(C)(C)O2 (configuration not stated),35.9,–
